Our source for the IC50 values is patent US20240158392A1 (Janssen Biotech, Inc., priority 2021, published 2024).

In assay [1] the target is T1, SIK2 (Homo sapiens, UniProt Q9H0K1). The assay can be described thus: SIK2 Enzymatic Assay Version 1 (ADP Glo). Type of assay: biochemical. The note with it: enzyme 0.6 nM, 160 μM ATP and 140 μM HDAC5tide (each 2× final concentration); 30 minutes pre-incubation, 4 hours; ADPGlo luminescence; read-out: SIK2 ADP Glo IC50 (μM) (Test Example 1). The method in brief:
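Kinase activity read as ADP production by ADP-Glo luminescence, all steps at room temperature. Compound and SIK2 (0.6 nM, a 2× concentration) were preincubated 30 min; ATP-only wells lacking peptide were the negative control; depletion 40 min, detection ≥30 min.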
A general note: ADP-Glo turns the ADP formed in a reaction into a luminescent signal.

Assay [2] addresses T1, SIK2. Briefly: SIK2 Enzymatic Assay High Version 2 (High ATP). It counts as biochemical. In outline:
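At room temperature, enzyme (6 nM, 2× final) was preincubated with compound for 30 min, then 6 mM ATP and 400 μM HDAC5tide (both 2× final) were added for 2 h. ADP formed was measured by ADP-Glo Max (2 h reagent, 1 h detection) using luminescence.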

T1 sequence (Q9H0K1 whole entry, species assumed): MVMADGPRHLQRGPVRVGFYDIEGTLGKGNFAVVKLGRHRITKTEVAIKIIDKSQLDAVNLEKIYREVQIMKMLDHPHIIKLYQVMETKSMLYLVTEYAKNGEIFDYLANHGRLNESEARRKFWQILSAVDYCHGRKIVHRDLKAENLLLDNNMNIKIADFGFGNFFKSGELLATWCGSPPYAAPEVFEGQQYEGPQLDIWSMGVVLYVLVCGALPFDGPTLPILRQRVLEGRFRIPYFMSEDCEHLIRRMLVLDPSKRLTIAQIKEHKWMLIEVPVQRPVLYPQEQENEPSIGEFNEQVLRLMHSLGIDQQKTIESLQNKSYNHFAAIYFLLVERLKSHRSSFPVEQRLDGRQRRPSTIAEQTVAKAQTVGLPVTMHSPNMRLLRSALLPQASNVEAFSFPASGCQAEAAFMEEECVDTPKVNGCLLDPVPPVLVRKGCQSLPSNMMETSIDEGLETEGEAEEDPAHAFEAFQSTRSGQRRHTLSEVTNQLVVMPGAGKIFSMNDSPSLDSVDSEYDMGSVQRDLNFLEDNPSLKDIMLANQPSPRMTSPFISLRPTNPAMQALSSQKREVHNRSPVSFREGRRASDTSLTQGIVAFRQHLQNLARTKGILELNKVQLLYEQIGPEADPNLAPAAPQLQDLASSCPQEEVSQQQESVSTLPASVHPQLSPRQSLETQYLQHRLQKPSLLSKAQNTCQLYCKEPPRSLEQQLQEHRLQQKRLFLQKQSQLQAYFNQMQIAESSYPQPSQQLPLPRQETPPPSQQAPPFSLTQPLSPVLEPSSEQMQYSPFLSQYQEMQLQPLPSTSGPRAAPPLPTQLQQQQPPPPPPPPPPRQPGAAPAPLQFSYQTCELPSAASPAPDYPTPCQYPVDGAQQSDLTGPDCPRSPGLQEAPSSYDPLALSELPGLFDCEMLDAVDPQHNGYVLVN

In general, IC50 refers to the midpoint of a concentration-inhibition curve. Consider `CN1CC[C@H](COc2cnc(C#N)cc2-c2ccn3nc(NC(=O)C4CC4)cc3c2)C1` [Example 16, (S)—N-(5-(2-cyano-5-((1-methylpyrrolidin-3-yl)methoxy)pyridin-4-yl)pyrazolo[1,5-a]pyridin-2-yl)cyclopropanecarboxamide], for which the IC50 on SIK2 [1] was 0.00496 µM; at SIK2 [2], 236 nM.
On the same counts, the results for `N#Cc1cc(-c2ccn3nc(NC(=O)C4CC4)cc3c2)c(OC[C@@H]2CNCCO2)cn1` [Example 19, N-[5-[2-cyano-5-[[(2S)-morpholin-2-yl]methoxy]-4-pyridyl]pyrazolo[1,5-a]pyridin-2-yl]cyclopropanecarboxamide] are 0.000783 µM and 8.38 nM.
In the case of `N#Cc1cc(-c2ccn3nc(NC(=O)C4CC4)cc3c2)c(OC[C@@H]2CC[C@H](N)C2)cn1` [Example 20, N-[5-[5-[[(1R,3S)-3-aminocyclopentyl]methoxy]-2-cyano-4-pyridyl]pyrazolo[1,5-a]pyridin-2-yl]cyclopropanecarboxamide], the IC50 at SIK2 [1] worked out at 0.00122 µM; against SIK2 [2], 10.2 nM.
Consider `N#Cc1cc(-c2ccn3nc(NC(=O)C4CC4)cc3c2)c(OCC2CNC2)cn1` [Example 23, N-[5-[5-(azetidin-3-ylmethoxy)-2-cyano-4-pyridyl]pyrazolo[1,5-a]pyridin-2-yl]cyclopropanecarboxamide], for which the IC50 was 0.0021 µM on SIK2 [1] and 16.3 nM against SIK2 [2].
As for `N#Cc1cc(-c2ccn3nc(NC(=O)C4CC4)cc3c2)c(O[C@@H]2C[C@H]3C[C@@H]2CN3)cn1` [Example 24, N-[5-[5-[[(1R,4R,5R)-2-azabicyclo[2.2.1]heptan-5-yl]oxy]-2-cyano-4-pyridyl]pyrazolo[1,5-a]pyridin-2-yl]cyclopropanecarboxamide], the IC50 at SIK2 [1] was 0.00594 µM; against SIK2 [2], 145 nM.
On to `CN1[C@@H]2CC[C@H]1C[C@H](COc1cnc(C#N)cc1-c1ccn3nc(NC(=O)C4CC4)cc3c1)C2` [Example 27, N-[5-[2-cyano-5-[[(1S,5R)-8-methyl-8-azabicyclo[3.2.1]octan-3-yl]methoxy]-4-pyridyl]pyrazolo[1,5-a]pyridin-2-yl]cyclopropanecarboxamide], for which the IC50 at SIK2 [1] came to 0.00474 µM; against SIK2 [2], 98.7 nM.
With `N#Cc1cc(-c2ccn3nc(NC(=O)C4CC4)cc3c2)c(OC2CNC2)cn1` [Example 31, N-[5-[5-(azetidin-3-yloxy)-2-cyano-4-pyridyl]pyrazolo[1,5-a]pyridin-2-yl]cyclopropanecarboxamide], the IC50 on SIK2 [1] stood at 0.00705 µM; against SIK2 [2], 111 nM.
As for `CN1CC(COc2cnc(C#N)cc2-c2ccn3nc(NC(=O)C4CC4)cc3c2)C1` [Example 32, N-[5-[2-cyano-5-[(1-methylazetidin-3-yl)methoxy]-4-pyridyl]pyrazolo[1,5-a]pyridin-2-yl]cyclopropanecarboxamide], the IC50 at SIK2 [1] worked out at 0.0034 µM; on SIK2 [2], 81.3 nM.
In the same order, the values of `CN1CCO[C@@H](COc2cnc(C#N)cc2-c2ccn3nc(NC(=O)C4CC4)cc3c2)C1` [Example 36, (R)—N-(5-(2-cyano-5-((4-methylmorpholin-2-yl)methoxy)pyridin-4-yl)pyrazolo[1,5-a]pyridin-2-yl)cyclopropanecarboxamide] are 0.00321 µM and 20.1 nM.
With `CN1CCC[C@@H](COc2cnc(C#N)cc2-c2ccn3nc(NC(=O)C4CC4)cc3c2)C1` [Example 37, (R)—N-(5-(2-cyano-5-((1-methylpiperidin-3-yl)methoxy)pyridin-4-yl)pyrazolo[1,5-a]pyridin-2-yl)cyclopropanecarboxamide], the half-maximal inhibitory concentration (IC50) amounted to 0.00725 µM at SIK2 [1] and 111 nM against SIK2 [2].
On the same counts, the results for `CN1CCC[C@H](COc2cnc(C#N)cc2-c2ccn3nc(NC(=O)C4CC4)cc3c2)C1` [Example 38, (S)—N-(5-(2-cyano-5-((1-methylpiperidin-3-yl)methoxy)pyridin-4-yl)pyrazolo[1,5-a]pyridin-2-yl)cyclopropanecarboxamide] are 0.014 µM and 305 nM.
In the same order, the values of `CN1CCO[C@H](COc2cnc(C#N)cc2-c2ccn3nc(NC(=O)C4CC4)cc3c2)C1` [Example 39, N-[5-[2-cyano-5-[[(2S)-4-methylmorpholin-2-yl]methoxy]-4-pyridyl]pyrazolo[1,5-a]pyridin-2-yl]cyclopropanecarboxamide] are 0.00152 µM and 36 nM.
On the same counts, the results for `N#Cc1cc(-c2ccn3nc(NC(=O)C4CC4)cc3c2)c(OCC23CCC(CC2)C(=O)N3)cn1` [Example 40, N-[5-[2-cyano-5-[(2-oxo-3-azabicyclo[2.2.2]octan-4-yl)methoxy]-4-pyridyl]pyrazolo[1,5-a]pyridin-2-yl]cyclopropanecarboxamide] are 0.0047 µM and 87.6 nM.
For `N#Cc1cc(-c2ccn3nc(NC(=O)C4CC4)cc3c2)c(OCC2(O)CCC2)cn1` [Example 41, N-[5-[2-cyano-5-[(1-hydroxycyclobutyl)methoxy]-4-pyridyl]pyrazolo[1,5-a]pyridin-2-yl]cyclopropanecarboxamide], the IC50 on SIK2 [1] worked out at 0.00243 µM; at SIK2 [2] it was 58.5 nM.
Regarding `N#Cc1cc(-c2ccn3nc(NC(=O)C4CC4)cc3c2)c(OCC2(O)CCCC2)cn1` [Example 42, N-[5-[2-cyano-5-[(1-hydroxycyclopentyl)methoxy]-4-pyridyl]pyrazolo[1,5-a]pyridin-2-yl]cyclopropanecarboxamide], the results for the IC50 at SIK2 [1] and on SIK2 [2] were 0.00169 µM and 45.5 nM, respectively.
In the case of `N#Cc1cc(-c2ccn3nc(NC(=O)C4CC4)cc3c2)c(OCC2CCNCC2)cn1` [Example 43, N-[5-[2-cyano-5-(4-piperidylmethoxy)-4-pyridyl]pyrazolo[1,5-a]pyridin-2-yl]cyclopropanecarboxamide], the figures for the IC50 at SIK2 [1] and against SIK2 [2] were 0.000938 µM and 10.8 nM, respectively.
Consider `N#Cc1cc(-c2ccn3nc(NC(=O)C4CC4)cc3c2)c(OCC2(N)CCC2)cn1` [Example 44, N-[5-[5-[(1-aminocyclobutyl)methoxy]-2-cyano-4-pyridyl]pyrazolo[1,5-a]pyridin-2-yl]cyclopropanecarboxamide], for which the IC50 at SIK2 [1] was 0.00124 µM; against SIK2 [2] it was 26 nM.
For `N#Cc1cc(-c2ccn3nc(NC(=O)C4CC4)cc3c2)c(OC2CC2)cn1` [Example 46, N-[5-[2-Cyano-5-(cyclopropoxy)-4-pyridyl]pyrazolo[1,5-a]pyridin-2-yl]cyclopropanecarboxamide], the IC50 on SIK2 [1] worked out at 0.0141 µM; at SIK2 [2], 185 nM.
On the same counts, the results for `N#Cc1cc(-c2ccn3nc(NC(=O)C4CC4)cc3c2)c(OCc2cccnc2)cn1` [Example 47, N-[5-[2-Cyano-5-(3-pyridylmethoxy)-4-pyridyl]pyrazolo[1,5-a]pyridin-2-yl]cyclopropanecarboxamide] are 0.0135 µM and 154 nM.
On to `N#Cc1cc(-c2ccn3nc(NC(=O)C4CC4)cc3c2)c(OCc2ccccn2)cn1` [Example 48, N-(5-(2-Cyano-5-(pyridin-2-ylmethoxy)pyridin-4-yl)pyrazolo[1,5-a]pyridin-2-yl)cyclopropanecarboxamide], for which the figures for the IC50 at SIK2 [1] and on SIK2 [2] were 0.0109 µM and 118 nM, respectively.
With `CN1CCC(COc2cnc(C#N)cc2-c2ccn3nc(NC(=O)C4CC4)cc3c2)CC1` [Example 51, N-[5-[2-cyano-5-[(1-methyl-4-piperidyl)methoxy]-4-pyridyl]pyrazolo[1,5-a]pyridin-2-yl]cyclopropanecarboxamide], the IC50 at SIK2 [1] was 0.00509 µM; against SIK2 [2] it was 116 nM.
On to `CC(C)(O)COc1cnc(C#N)cc1-c1ccn2nc(NC(=O)C3CC3)cc2c1` [Example 52, N-[5-[2-Cyano-5-(2-hydroxy-2-methyl-propoxy)-4-pyridyl]pyrazolo[1,5-a]pyridin-2-yl]cyclopropanecarboxamide], for which the IC50 on SIK2 [1] is 0.00206 µM; on SIK2 [2], 31.8 nM.
In the same order, the values of `N#Cc1cc(-c2ccn3nc(NC(=O)C4CC4)cc3c2)c(OC[C@H]2CC[C@H](O)CC2)cn1` [Example 53, trans-N-(5-(2-Cyano-5-(((1r,4r)-4-hydroxycyclohexyl)methoxy)pyridin-4-yl)pyrazolo[1,5-a]pyridin-2-yl)cyclopropanecarboxamide] are 0.000641 µM and 13.5 nM.
In the same order, the values of `CC(=O)N1CCC(COc2cnc(C#N)cc2-c2ccn3nc(NC(=O)C4CC4)cc3c2)CC1` [Example 60, N-[5-[5-[(1-acetyl-4-piperidyl)methoxy]-2-cyano-4-pyridyl]pyrazolo[1,5-a]pyridin-2-yl]cyclopropanecarboxamide] are 0.00492 µM and 98.6 nM.
On to `C[C@H](O)COc1cnc(C#N)cc1-c1ccn2nc(NC(=O)C3CC3)cc2c1` [Example 63, N-[5-[2-cyano-5-[(2S)-2-hydroxypropoxy]-4-pyridyl]pyrazolo[1,5-a]pyridin-2-yl]cyclopropanecarboxamide], for which the IC50 was determined as 0.00426 µM at SIK2 [1] and 78.6 nM at SIK2 [2].
On the same counts, the results for `N#Cc1cc(-c2ccn3nc(NC(=O)C4CC4)cc3c2)c(O[C@H]2CC[C@H](O)CC2)cn1` [Example 64, N-[5-[2-cyano-5-(4-hydroxycyclohexoxy)-4-pyridyl]pyrazolo[1,5-a]pyridin-2-yl]cyclopropanecarboxamide] are 0.000387 µM and 8.63 nM.
For `CN1[C@@H]2CC[C@H]1C[C@@H](Oc1cnc(C#N)cc1-c1ccn3nc(NC(=O)C4CC4)cc3c1)C2` [Example 66, N-[5-[2-cyano-5-[[(1S,5R)-8-methyl-8-azabicyclo[3.2.1]octan-3-yl]oxy]-4-pyridyl]pyrazolo[1,5-a]pyridin-2-yl]cyclopropanecarboxamide], the IC50 on SIK2 [1] is 0.000561 µM; on SIK2 [2], 8.5 nM.
